{"source": "patent US20210300909A1", "about": "“IMMUNOMODULATORS, COMPOSITIONS AND METHODS THEREOF” (BETTA PHARMACEUTICALS CO., LTD, priority 2018, published 2021)", "molecular_target": "T1, PD-1/PD-L1 protein/protein interaction (Homo sapiens, UniProt Q9NZQ7)", "T1 construct": "Recombinant human PD-L1 protein (19-238) with a His-tag at the C-terminus; purchased AcroBiosystems PD1-H5229 (PD-L1); PD1-H5257 (PD-1)", "T1 sequence (Q9NZQ7 19-238)": "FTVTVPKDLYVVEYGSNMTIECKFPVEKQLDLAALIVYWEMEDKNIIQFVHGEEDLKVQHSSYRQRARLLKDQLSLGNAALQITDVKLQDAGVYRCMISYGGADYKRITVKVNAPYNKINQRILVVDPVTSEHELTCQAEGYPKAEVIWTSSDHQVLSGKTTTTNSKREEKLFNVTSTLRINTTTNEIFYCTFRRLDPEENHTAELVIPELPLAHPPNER", "test": "PD-1/PD-L1 homogenous time-resolved fluorescence (HTRF) binding assay", "experimental": "Resolved Fluorescence (HTRF) Binding Assay\nThe assays were conducted in a standard black 384-well polystyrene plate with a final volume of 20 μL. Inhibitors were first serially diluted in DMSO and then added to the plate wells before the addition of other reaction components. The final concentration of DMSO in the assay was 1%. The assays were carried out at 25° C. in the PBS buffer (pH 7.4) with 0.05% Tween-20 and 0.1% BSA. […] Plates were centrifuged and proteins were preincubated with inhibitors for 40 min. The incubation was followed by the addition of 10 μL of HTRF detection buffer supplemented with Europium cryptate-labeled anti-human IgG (PerkinElmer-AD0212) specific for Fc and anti-His antibody conjugated to SureLight®-Allophycocyanin (APC, PerkinElmer-AD0059H). After centrifugation, the plate was incubated at 25° C. for 60 min. […] Final concentrations in the assay were […], 10 nM PD-L1, nM europium anti-human IgG and 20 nM anti-His-Allophycocyanin. IC50 determination was performed by fitting the curve of percent control activity versus the log of the inhibitor concentration using the GraphPad Prism 5.0 software.", "key": {"[1]": {"conditions": "HTRF, recombinant human PD-1 (Fc tag) / PD-L1 (His-tag), 25° C., PBS pH 7.4, class symbols, read-out: IC50"}}, "note": "Read-outs that look alike come from different tables or passages of the source."}
{"compound": "Cc1c(-c2cccc(OCCCN3CCOCC3)c2)cccc1-c1nc2cc(CN3CCCCC3C(=O)O)c(OCc3ccccn3)cc2o1", "note": "(stereo not shown) [Compound 22, 1-((2-(2-methyl-3′-(3-morpholinopropoxy)-[1,1′-biphenyl]-3-yl)-6-(pyridin-2-ylmethoxy)benzo[d]oxazol-5-yl)methyl)piperidine-2-carboxylic acid]", "values": [{"measurement": "IC50", "value": "25 to 150", "unit": "nM"}]}
{"compound": "COc1cc2oc(-c3cccc(-c4ccccc4)c3C)nc2cc1CN1CCCCC1C(=O)O", "note": "(stereo not shown) [Compound 23, 1-((6-methoxy-2-(2-methyl-[1,1′-biphenyl]-3-yl)benzo[d]oxazol-5-yl)methyl)piperidine-2-carboxylic acid]", "values": [{"measurement": "IC50", "setting": "HTRF, recombinant human PD-1 (Fc tag) / PD-L1 (His-tag), 25° C., PBS pH 7.4, numeric values, read-out: IC50", "value": 0.61, "unit": "nM"}]}
{"compound": "Cc1c(-c2ccccc2)cccc1-c1nc2cc(CN3CCCCC3C(=O)O)c(OC(C)C)cc2o1", "note": "(stereo not shown) [Compound 24, 1-((6-isopropoxy-2-(2-methyl-[1,1′-biphenyl]-3-yl)benzo[d]oxazol-5-yl)methyl)piperidine-2-carboxylic acid]", "values": [{"measurement": "IC50", "value": "< 25", "unit": "nM"}]}
{"compound": "COc1cc2sc(-c3cccc(-c4cccc(OCCCN5CCOCC5)c4)c3C)nc2cc1CN1CCCC1C(=O)O", "note": "(stereo not shown) [Compound 25, ((6-methoxy-2-(2-methyl-3′-(3-morpholinopropoxy)-[1,1′-biphenyl]-3-yl)benzo[d]thiazol-5-yl)methyl)proline]", "values": [{"measurement": "IC50", "value": "< 25", "unit": "nM"}]}
{"compound": "COc1cc2nc(-c3cccc(-c4cccc(OCCCN5CCOCC5)c4)c3C)sc2cc1CN1CCCC1C(=O)O", "note": "(stereo not shown) [Compound 26, ((5-methoxy-2-(2-methyl-3′-(3-morpholinopropoxy)-[1,1′-biphenyl]-3-yl)benzo[d]thiazol-6-yl)methyl)proline]", "values": [{"measurement": "IC50", "value": "< 25", "unit": "nM"}]}
{"compound": "COc1cc2oc(-c3cccc(-c4cccc(CC5OC5CN5CCOCC5)c4C)c3C)nc2cc1CN1CCCCC1C(=O)O", "note": "(stereo not shown) [Compound 27, 1-((2-(2,2′-dimethyl-3′-((3-(morpholinomethyl)oxiran-2-yl)methyl)-[1,1′-biphenyl]-3-yl)-6-methoxybenzo[d]oxazol-5-yl)methyl)piperidine-2-carboxylic acid]", "values": [{"measurement": "IC50", "value": "25 to 150", "unit": "nM"}]}
{"compound": "COc1cc2oc(-c3cccc(-c4cccc(CC5CC5CN5CCOCC5)c4C)c3C)nc2cc1CN1CCCCC1C(=O)O", "note": "(stereo not shown) [Compound 28, 1-((2-(2,2′-dimethyl-3′-((2-(morpholinomethyl)cyclopropyl)methyl)-[1,1′-biphenyl]-3-yl)-6-methoxybenzo[d]oxazol-5-yl)methyl)piperidine-2-carboxylic acid]", "values": [{"measurement": "IC50", "value": "25 to 150", "unit": "nM"}]}
{"compound": "COc1cc2oc(-c3cccc(-c4cccc(OCCCN(C)CCCCO)c4C)c3C)nc2cc1CN1CCCCC1C(=O)O", "note": "(stereo not shown) [Compound 29, 1-((2-(3′-(3-((4-hydroxybutyl)(methyl)amino)propoxy)-2,2′-dimethyl-[1,1′-biphenyl]-3-yl)-6-methoxybenzo[d]oxazol-5-yl)methyl)piperidine-2-carboxylic acid]", "values": [{"measurement": "IC50", "value": "< 25", "unit": "nM"}]}
{"compound": "COc1cc2oc(-c3cccc(-c4cccc(OCCCN(C)C)c4C)c3C)nc2cc1CN1CCCCC1C(=O)O", "note": "(stereo not shown) [Compound 30, 1-((2-(3′-(3-(dimethylamino)propoxy)-2,2′-dimethyl-[1,1′-biphenyl]-3-yl)-6-methoxybenzo[d]oxazol-5-yl)methyl)piperidine-2-carboxylic acid]", "values": [{"measurement": "IC50", "value": "< 25", "unit": "nM"}]}
{"compound": "COCCN(C)CCCOc1cccc(-c2cccc(-c3nc4cc(CN5CCCCC5C(=O)O)c(OC)cc4o3)c2C)c1C", "note": "(stereo not shown) [Compound 31, 1-((6-methoxy-2-(3′-(3-((2-methoxyethyl)(methyl)amino)propoxy)-2,2′-dimethyl-[1,1′-biphenyl]-3-yl)benzo[d]oxazol-5-yl)methyl)piperidine-2-carboxylic acid]", "values": [{"measurement": "IC50", "value": "< 25", "unit": "nM"}]}
{"compound": "CCCNC(=O)NCCN(C)CCCOc1cccc(-c2cccc(-c3nc4cc(CN5CCCCC5C(=O)O)c(OC)cc4o3)c2C)c1C", "note": "(stereo not shown) [Compound 32, 1-((2-(2,2′-dimethyl-3′-(3-(methyl(2-(3-propylureido)ethyl)amino)propoxy)-[1,1′-biphenyl]-3-yl)-6-methoxybenzo[d]oxazol-5-yl)methyl)piperidine-2-carboxylic acid]", "values": [{"measurement": "IC50", "value": "< 25", "unit": "nM"}]}
{"compound": "COc1cc2nc(-c3cccc(-c4cccc(OCCCN5CCOCC5)c4)c3C)n(C)c2cc1CN1CCCCC1C(=O)O", "note": "(stereo not shown) [Compound 33, 1-((5-methoxy-1-methyl-2-(2-methyl-3′-(3-morpholinopropoxy)-[1,1′-biphenyl]-3-yl)-1H-benzo[d]imidazol-6-yl)methyl)piperidine-2-carboxylic acid]", "values": [{"measurement": "IC50", "value": "< 25", "unit": "nM"}]}
{"compound": "COc1cc2nc(-c3cccc(-c4cccc(OCCCN5CCOCC5)c4)c3C)oc2cc1CN1CCCCC1C(=O)O", "note": "(stereo not shown) [Compound 34, 1-((5-methoxy-2-(2-methyl-3′-(3-morpholinopropoxy)-[1,1′-biphenyl]-3-yl)benzo[d]oxazol-6-yl)methyl)piperidine-2-carboxylic acid]", "values": [{"measurement": "IC50", "value": "< 25", "unit": "nM"}]}
{"compound": "COc1cc2nc(-c3cccc(-c4cccc(OCCCN5CCOCC5)c4)c3C)sc2cc1CN1CCCCC1C(=O)O", "note": "(stereo not shown) [Compound 35, 1-((5-methoxy-2-(2-methyl-3′-(3-morpholinopropoxy)-[1,1′-biphenyl]-3-yl)benzo[d]thiazol-6-yl)methyl)piperidine-2-carboxylic acid]", "values": [{"measurement": "IC50", "value": "< 25", "unit": "nM"}]}
{"compound": "Cc1c(OCCCN2CCOCC2)cccc1-c1cccc(-c2nc3cc(CNCC(=O)O)c(N(C)C)cc3s2)c1C", "note": "[Compound 36, ((2-(2,2′-dimethyl-3′-(3-morpholinopropoxy)-[1,1′-biphenyl]-3-yl)-6-(dimethylamino)benzo[d]thiazol-5-yl)methyl)glycine]", "values": [{"measurement": "IC50", "setting": "[1]", "value": "25 to 150", "unit": "nM"}]}
{"compound": "Cc1c(OCCCN2CCOCC2)cccc1-c1cccc(-c2nc3cc(CN(C)CC(=O)O)c(N(C)C)cc3o2)c1C", "note": "[Compound 37, N-((2-(2,2′-dimethyl-3′-(3-morpholinopropoxy)-[1,1′-biphenyl]-3-yl)-6-(dimethylamino)benzo[d]oxazol-5-yl)methyl)-N-methylglycine]", "values": [{"measurement": "IC50", "value": "< 25", "unit": "nM"}]}
{"compound": "COc1cc2oc(-c3cccc(-c4cccc5c4CCN5C(=O)CCN4CCOCC4)c3C)nc2cc1CN1CCOCC1C(=O)O", "note": "(stereo not shown) [Compound 38, 4-((6-methoxy-2-(2-methyl-3-(1-(3-morpholinopropanoyl)indolin-4-yl)phenyl)benzo[d]oxazol-5-yl)methyl)morpholine-3-carboxylic acid]", "values": [{"measurement": "IC50", "value": "< 25", "unit": "nM"}]}
{"compound": "CCOc1cc2oc(-c3cccc(-c4cccc5c4CCN5C(=O)CCN4CCOCC4)c3C)nc2cc1CN1CCCCC1C(=O)O", "note": "(stereo not shown) [Compound 39, 1-((6-ethoxy-2-(2-methyl-3-(1-(3-morpholinopropanoyl)indolin-4-yl)phenyl)benzo[d]oxazol-5-yl)methyl)piperidine-2-carboxylic acid]", "values": [{"measurement": "IC50", "setting": "[1]", "value": "< 25", "unit": "nM"}]}
{"compound": "COc1cc2oc(-c3cccc(-c4cccc5c4CCN5C(=O)CN4CCOCC4)c3C)nc2cc1CN1CCCCC1C(=O)O", "note": "(stereo not shown) [Compound 40, 1-((6-methoxy-2-(2-methyl-3-(1-(2-morpholinoacetyl)indolin-4-yl)phenyl)benzo[d]oxazol-5-yl)methyl)piperidine-2-carboxylic acid]", "values": [{"measurement": "IC50", "setting": "[1]", "value": "> 150", "unit": "nM"}]}
